Source: patent publication US20240247080A1, “GLP1/GIP/NPY2 RECEPTOR TRIPLE AGONISTS” (Boehringer Ingelheim International GmbH, priority 2022, published 2024)
Where two headings read alike, the source gives them in different places. Starred links: 1 amine or outer side, 2 acyl side, 3 side chain; linkers in the order of their positions; H or OH if unused. Non-standard residues stand in square brackets, D forms with d. Groups on a side chain read outwards from the residue. No end group written: not given here. *: point of attachment. C20 diacid = O=C(O)CCCCCCCCCCCCCCCCCCC(=O)*; C18 diacid = O=C(O)CCCCCCCCCCCCCCCCC(=O)*; γGlu = O=C(O)[C@H](CCC(=O)[*:2])N[*:1]; εLys = N[C@@H](CCCCN[*:1])C(=O)[*:2]; β3hQ = NC(=O)CC[C@H](N)CC(=O)O; AEEA = NCCOCCOCC(=O)O; Aib = CC(C)(N)C(=O)O; Ahx = NCCCCCC(=O)O

Key:
Type in all cases: cell-based
Conditions in all cases: CreLuc reporter gene assay
hGIPR = biological target: T1, hGIPR (Homo sapiens, UniProt P48546); experiment: hGIPR CreLuc reporter gene assay in 0.5% and 100% plasma
T1 construct: expressed in transfected cells; host or cells: CHO cells carrying a CRE-luciferase reporter gene
T1 sequence (P48546 22-466): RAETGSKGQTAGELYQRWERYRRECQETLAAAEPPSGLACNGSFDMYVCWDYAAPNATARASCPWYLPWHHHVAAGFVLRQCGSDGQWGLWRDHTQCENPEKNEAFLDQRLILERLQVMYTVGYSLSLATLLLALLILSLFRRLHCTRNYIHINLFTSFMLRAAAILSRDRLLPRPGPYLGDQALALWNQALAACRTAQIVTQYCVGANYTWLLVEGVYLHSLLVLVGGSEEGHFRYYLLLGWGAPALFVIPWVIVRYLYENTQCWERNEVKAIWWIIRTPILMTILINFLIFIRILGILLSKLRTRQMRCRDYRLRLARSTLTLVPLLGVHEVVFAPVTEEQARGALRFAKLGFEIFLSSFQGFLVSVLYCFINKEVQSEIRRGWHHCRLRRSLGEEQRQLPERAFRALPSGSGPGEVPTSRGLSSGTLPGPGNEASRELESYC
In short: (§1)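 Agonist EC50s came from 8-concentration curves over four decades, fitted by non-linear variable-slope regression of CRE-driven luciferase luminescence. Cells were exposed 4 h at 37 °C, in buffer with 0.5% human plasma or in 100% plasma; GIPR was expressed in CHO cells, GLP-1R and NPY2R in HEK cells.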

hNPY2R = biological target: T2, hNPY2R (Homo sapiens, UniProt P49146); experiment: hNPY2R CreLuc reporter gene assay in 0.5% and 100% plasma
T2 construct: expressed in transfected cells; host or cells: HEK-293 cells carrying a CRE-luciferase reporter gene
T2 sequence (P49146 1-381): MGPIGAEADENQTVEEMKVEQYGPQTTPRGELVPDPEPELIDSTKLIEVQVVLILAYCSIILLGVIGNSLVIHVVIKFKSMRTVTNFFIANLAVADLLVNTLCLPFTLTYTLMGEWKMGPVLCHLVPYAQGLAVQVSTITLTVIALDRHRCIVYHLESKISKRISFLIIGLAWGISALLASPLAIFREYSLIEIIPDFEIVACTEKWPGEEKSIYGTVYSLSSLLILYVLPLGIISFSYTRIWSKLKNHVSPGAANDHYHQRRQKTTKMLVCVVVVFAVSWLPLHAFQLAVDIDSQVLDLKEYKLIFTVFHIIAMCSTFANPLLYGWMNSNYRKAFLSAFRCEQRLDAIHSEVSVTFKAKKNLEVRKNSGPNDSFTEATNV
In short: as §1

hGLP1R = biological target: T3, hGLP1R (Homo sapiens, UniProt P43220); experiment: hGLP1R CreLuc reporter gene assay in 0.5% and 100% plasma
T3 construct: expressed in transfected cells; host or cells: HEK-293 cells carrying a CRE-luciferase reporter gene
In short: as §1

[1] = 0.5% human plasma, read-out: hGIPR 0.5% hP
[2] = 100% human plasma, read-out: hGIPR 100% hP
[3] = 0.5% human plasma, read-out: hNPY2R 0.5% hP
[4] = 0.5% human plasma, read-out: hGLP1R 0.5% hP
[5] = 100% human plasma, read-out: hNPY2R 100% hP
[6] = 100% human plasma, read-out: hGLP1R 100% hP

T3 sequence (P43220 24-463): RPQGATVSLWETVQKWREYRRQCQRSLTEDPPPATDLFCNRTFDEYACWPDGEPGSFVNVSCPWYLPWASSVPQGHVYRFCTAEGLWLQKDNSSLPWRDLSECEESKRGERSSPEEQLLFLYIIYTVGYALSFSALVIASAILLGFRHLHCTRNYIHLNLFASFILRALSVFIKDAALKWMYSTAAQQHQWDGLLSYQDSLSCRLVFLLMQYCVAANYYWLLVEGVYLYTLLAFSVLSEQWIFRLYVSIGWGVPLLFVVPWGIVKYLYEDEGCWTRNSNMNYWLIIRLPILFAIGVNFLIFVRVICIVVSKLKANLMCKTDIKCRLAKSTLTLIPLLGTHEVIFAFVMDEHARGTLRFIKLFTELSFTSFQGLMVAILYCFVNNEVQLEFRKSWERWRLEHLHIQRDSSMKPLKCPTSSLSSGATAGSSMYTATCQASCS

| Molecule | EC50 (hGIPR; [1]) | EC50 (hGIPR; [2]) | EC50 (hNPY2R; [3]) | EC50 (hGLP1R; [4]) | EC50 (hNPY2R; [5]) | EC50 (hGLP1R; [6]) |
| --- | --- | --- | --- | --- | --- | --- |
| Y[Aib]EGTFTSDYSI[Aib]LEKQAQ[Aib]AFVQWLIK([Ahx-γGlu-γGlu-γGlu-γGlu-γGlu-γGlu-C18 diacid])GGPSEGASLRHYYNWLTRQRY-NH2 [Compound 245, Y-Aib-E-G-T-F-T-S-D-Y-S-I-Aib-L-E-K-Q-A-Q-Aib-A-F-V-Q-W-L-I-K(1,3)-GGPSEGASLRHYYNWLTRQRY-NH2.C18DA-gGlu-gGlu-gGlu-glu-gGlu-Glu-AHX(1,2)] | 0.37 nM |  | 24.5 nM | 0.09 nM |  |  |
| H-Y[Aib]EGTFTSDYSI[Aib]LEKQAQ[Aib]AFVQWLIK([εLys-γGlu-γGlu-γGlu-γGlu-γGlu-γGlu-C20 diacid])GGQRSYASLRHYYNWLTRQRY-NH2 [Compound 3, Y-Aib-E-G-T-F-T-S-D-Y-S-I-Aib-L-E-K-Q-A-Q-Aib-A-F-V-Q-W-L-I-K(1,3)-GGQRSYASLRHYYNWLTRQRY-NH2.C20DA-gGlu-gGlu-gGlu-gGlu-gGlu-gGlu-eLys(1,2)] | 0.53 nM |  |  | 0.45 nM | 23 nM |  |
| H-Y[Aib]EGTFTSDYSI[Aib]LEK(Ac)QAQ[Aib]AFVEWLIK([εLys-γGlu-γGlu-γGlu-γGlu-γGlu-γGlu-C20 diacid])GGPSSGASLRHYYNWLTRQRY-NH2 [Compound 192, Y-Aib-E-G-T-F-T-S-D-Y-S-I-Aib-L-E-KAc-Q-A-Q-Aib-A-F-V-E-W-L-I-K(1,3)-GGPSSGASLRHYYNWLTRQRY-NH2.C20DA-gGlu-gGlu-gGlu-gGlu-gGlu-glu-eLys(1,2)] | 0.28 nM |  | 20.5 nM | 0.13 nM |  |  |
| H-Y[Aib]EGTFTSDYSI[Aib]LELQAQ[Aib]AFVEWLIK([εLys-γGlu-γGlu-γGlu-γGlu-γGlu-γGlu-C20 diacid])GGPSSGASLRHYYNWLTRQRY-NH2 [Compound 209, Y-Aib-E-G-T-F-T-S-D-Y-S-I-Aib-L-E-L-Q-A-Q-Aib-A-F-V-E-W-L-I-K(1,3)-GGPSSGASLRHYYNWLTRQRY-NH2.C20DA-gGlu-gGlu-gGlu-gGlu-gGlu-gGlu-eLys(1,2)] | 0.81 nM |  | 35.2 nM | 0.48 nM |  | 16.7 nM |
| H-Y[Aib]EGTFTSDYSI[Aib]LEKQAQ[Aib]EFVQWLIK([γGlu-γGlu-γGlu-γGlu-γGlu-γGlu-C18 diacid])GGPSEGASLRHYYNWLTRQRY-NH2 [Compound 151, Y-Aib-E-G-T-F-T-S-D-Y-S-I-Aib-L-E-K-Q-A-Q-Aib-E-F-V-Q-W-L-I-K(1,3)-GGPSEGASLRHYYNWLTRQRY-NH2.C18DA-gGlu-gGlu-gGlu-gGlu-gGlu-gGlu(1,2)] | 0.91 nM |  | 18.9 nM | 0.26 nM |  | 4.39 nM |

Molecules with a lower EC50 (hGIPR; [1]), results first:

| EC50 (hGIPR; [1]) | EC50 (hGIPR; [2]) | EC50 (hNPY2R; [3]) | EC50 (hGLP1R; [4]) | EC50 (hNPY2R; [5]) | EC50 (hGLP1R; [6]) | Molecule |
| --- | --- | --- | --- | --- | --- | --- |
| 0.27 nM | 1.75 nM | 19.9 nM | 0.5 nM |  |  | H-Y[Aib]EGTFTSDYSI[Aib]LEKQAQ[Aib]EFVEWLIK([εLys-γGlu-γGlu-γGlu-γGlu-γGlu-γGlu-C20 diacid])GGPSEGASLRHYYNWLTRQRY-NH2 [Compound 275, Y-Aib-E-G-T-F-T-S-D-Y-S-I-Aib-L-E-K-Q-A-Q-Aib-E-F-V-E-W-L-I-K(1,3)-GGPSEGASLRHYYNWLTRQRY-NH2.C20DA-gGlu-gGlu-gGlu-gGlu-gGlu-gGlu-eLys(1,2)] |
| 0.23 nM | 1.37 nM | 13.7 nM | 0.15 nM | 42.2 nM |  | H-Y[Aib]EGTFTSDYSI[Aib]LEKQAE[Aib]AFVQWLIK([εLys-γGlu-γGlu-γGlu-γGlu-γGlu-γGlu-C18 diacid])GGPSSGASLRHYYNWLTRQRY-NH2 [Compound 51, Y-Aib-E-G-T-F-T-S-D-Y-S-I-Aib-L-E-K-Q-A-E-Aib-A-F-V-Q-W-L-I-K(1,3)-GGPSSGASLRHYYNWLTRQRY-NH2.C18DA-gGlu-gGlu-gGlu-gGlu-gGlu-gGlu-eLys(1,2)] |
| 0.22 nM |  | 12.4 nM | 0.12 nM | 45.9 nM | 3.11 nM | H-Y[Aib]EGTFTSDYSI[Aib]LEKQAQ[Aib]AFVEWLIK([AEEA-AEEA-γGlu-γGlu-γGlu-γGlu-γGlu-C18 diacid])GGPSSPASLRHYYNWLTRQRY-NH2 [Compound 140, Y-Aib-E-G-T-F-T-S-D-Y-S-I-Aib-L-E-K-Q-A-Q-Aib-A-F-V-E-W-L-I-K(1,3)-GGPSSPASLRHYYNWLTRQRY-NH2.C18DA-gGlu-gGlu-gGlu-gGlu-gGlu-OEG-OEG(1,2)] |
| 0.21 nM | 1.39 nM | 70.4 nM | 0.13 nM |  |  | H-Y[Aib]EGTFTSDYSI[Aib]LEKQAQ[Aib]AFVEWLIK([εLys-γGlu-γGlu-γGlu-γGlu-γGlu-γGlu-C20 diacid])GGPSSGASLR[Aib]YYNWLTRQRY-NH2 [Compound 182, Y-Aib-E-G-T-F-T-S-D-Y-S-I-Aib-L-E-K-Q-A-Q-Aib-A-F-V-E-W-L-I-K(1,3)-G-G-P-S-S-G-A-S-L-R-Aib-Y-Y-N-W-L-T-R-Q-R-Y-NH2.C20DA-gGlu-gGlu-gGlu-gGlu-gGlu-gGlu-eLys(1,2)] |
| 0.14 nM | 1.23 nM | 11.5 nM | 0.21 nM | 41.7 nM |  | H-Y[Aib]EGTFTSDYSI[Aib]LEKQAQ[Aib]AFVEWLIK([AEEA-AEEA-γGlu-γGlu-γGlu-γGlu-C18 diacid])GGPEEPASLRHYYNWLTRQRY-NH2 [Compound 161, Y-Aib-E-G-T-F-T-S-D-Y-S-I-Aib-L-E-K-Q-A-Q-Aib-A-F-V-E-W-L-I-K(1,3)-GGPEEPASLRHYYNWLTRQRY-NH2.C18DA-gGlu-gGlu-gGlu-gGlu-OEG-OEG(1,2)] |
| 0.11 nM | 0.68 nM | > 99.9 nM | 0.19 nM |  |  | H-Y[Aib]EGTFTSDYSI[Aib]LEKQAQ[Aib]AFVEWLIK([εLys-γGlu-γGlu-γGlu-γGlu-γGlu-γGlu-C20 diacid])GGPSEGASLRHYYNWLTR[β3hQ]RY-NH2 [Compound 277, Y-Aib-E-G-T-F-T-S-D-Y-S-I-Aib-L-E-K-Q-A-Q-Aib-A-F-V-E-W-L-I-K(1,3)-G-G-P-S-E-G-A-S-L-R-H-Y-Y-N-W-L-T-R-bHGln-R-Y-NH2.C20DA-gGlu-gGlu-gGlu-gGlu-gGlu-gGlu-eLys(1,2)] |
| 0.09 nM | 0.64 nM | 10.8 nM | 0.28 nM |  |  | CC[C@H](C)[C@H](NC(=O)[C@H](CO)NC(=O)[C@H](Cc1ccc(O)cc1)NC(=O)[C@H](CC(=O)O)NC(=O)[C@H](CO)NC(=O)[C@@H](NC(=O)[C@H](Cc1ccccc1)NC(=O)[C@@H](NC(=O)CNC(=O)[C@H](CCC(=O)O)NC(=O)C(C)(C)NC(=O)[C@@H](N)Cc1ccc(O)cc1)[C@@H](C)O)[C@@H](C)O)C(=O)NC(C)(C)C(=O)N[C@@H](CC(C)C)C(=O)N[C@@H](CCC(=O)O)C(=O)N[C@@H](CCCCN)C(=O)N[C@@H](CCC(N)=O)C(=O)N[C@@H](C)C(=O)N[C@@H](CCC(N)=O)C(=O)NC(C)(C)C(=O)N[C@@H](C)C(=O)N[C@@H](Cc1ccccc1)C(=O)N[C@H](C(=O)N[C@@H](CCC(=O)O)C(=O)N[C@@H](Cc1c[nH]c2ccccc12)C(=O)N[C@@H](CC(C)C)C(=O)N[C@@H](CC(C)C)C(=O)N[C@@H](CCCCNC(=O)[C@@H](N)CCCCNC(=O)CC[C@H](NC(=O)CC[C@H](NC(=O)CC[C@H](NC(=O)CC[C@H](NC(=O)CC[C@H](NC(=O)CC[C@H](NC(=O)CCCCCCCCCCCCCCCCCCC(=O)O)C(=O)O)C(=O)O)C(=O)O)C(=O)O)C(=O)O)C(=O)O)C(=O)NCC(=O)NCC(=O)N1CCC[C@H]1C(=O)N[C@@H](CO)C(=O)N[C@@H](CO)C(=O)NCC(=O)N[C@@H](C)C(=O)N[C@@H](CO)C(=O)N[C@@H](CC(C)C)C(=O)N[C@@H](CCCNC(=N)N)C(=O)N[C@@H](Cc1c[nH]cn1)C(=O)N[C@@H](Cc1ccc(O)cc1)C(=O)N[C@@H](Cc1ccc(O)cc1)C(=O)N[C@@H](CC(N)=O)C(=O)N[C@@H](Cc1c[nH]c2ccccc12)C(=O)N[C@@H](CC(C)C)C(=O)N[C@H](C(=O)N[C@@H](CCCNC(=N)N)C(=O)N[C@@H](CCC(N)=O)C(=O)N[C@@H](CCCNC(=N)N)C(=O)N[C@@H](Cc1ccc(O)cc1)C(N)=O)[C@@H](C)O)C(C)C [Compound 109, Y-Aib-E-G-T-F-T-S-D-Y-S-I-Aib-L-E-K-Q-A-Q-Aib-A-F-V-E-W-L-L-K(1,3)-GGPSSGASLRHYYNWLTRQRY-NH2.C20DA-gGlu-gGlu-glu-gGlu-gGlu-Glu-eLys(1,2)] |
